# Reference: US20100267561A1, “HERBICIDAL PYRIDAZINONE DERIVATIVES” (priority 2007, published 2010)
# Assays:
# Assay in all cases: Test B pre-/postemergence plant response
# Type in all cases: in vivo
# [1] = system: surinam grass (Brachiaria decumbens); conditions: for Surinam Grass plant response rating: 8 g ai/ha
# How it was run: (§1)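 Seeds were sown and sprayed preemergence, while plants at 2 to 18 cm (1- to 4-leaf stage) got postemergence sprays. Compounds were formulated in a non-phytotoxic solvent mixture with surfactant. After 13 to 15 days in a greenhouse, injury was rated visually against untreated controls, 0 (no effect) to 100 (complete control).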
# [2] = system: kochia (Kochia scoparia); conditions: for Kochia plant response rating: 8 g ai/ha
# How it was run: as §1
# [3] = system: corn (Zea mays); conditions: for Corn plant response rating: 8 g ai/ha
# How it was run: as §1
# [4] = system: wild oat (Avena fatua); conditions: for Oat, Wild plant response rating: 8 g ai/ha
# How it was run: as §1
# [5] = system: catchweed bedstraw (Galium aparine); conditions: Preemergence
# How it was run: as §1
# [6] = system: common ragweed (Ambrosia elation); conditions: for Ragweed plant response rating: 8 g ai/ha
# How it was run: as §1
# [7] = system: cocklebur (Xanthium strumarium); conditions: for Cocklebur plant response rating: 8 g ai/ha
# How it was run: as §1
# [8] = system: lambsquarters (Chenopodium album); conditions: for Lambsquarters plant response rating: 8 g ai/ha
# How it was run: as §1
# [9] = system: green foxtail (Setaria viridis); conditions: for Foxtail, Green plant response rating: 8 g ai/ha
# How it was run: as §1
# [10] = system: Italian ryegrass (Lolium multiflorum); conditions: for Ryegrass, Italian plant response rating: 8 g ai/ha
# How it was run: as §1
# [11] = system: morningglory (Ipomoea coccinea); conditions: for Morningglory plant response rating: 8 g ai/ha
# How it was run: as §1
# [12] = system: Russian thistle (Salsola iberica); conditions: Preemergence
# How it was run: as §1
# [13] = system: yellow nutsedge (Cyperus esculentus); conditions: for Nutsedge, Yellow plant response rating: 8 g ai/ha
# How it was run: as §1
# [14] = system: eastern black (E.B.) nightshade (Solanum ptycanthum); conditions: Preemergence
# How it was run: as §1
# [15] = Postemergence, 16 g ai/ha, scale 0 to 100
# [16] = Postemergence, 62 g ai/ha, scale 0 to 100, 0 no effect, 100 complete control
# [17] = Preemergence, 16 g ai/ha, scale 0 to 100 (0 no effect, 100 complete control)
# [18] = Preemergence, 31 g ai/ha, scale 0 to 100 (0 no effect, 100 complete control)
# [19] = Postemergence, 31 g ai/ha, scale 0 to 100, 0 no effect, 100 complete control
# [20] = Preemergence, 31 g ai/ha, 0 to 100 scale, 0 no effect, 100 complete control
# [21] = Preemergence, 62 g ai/ha, scale 0 to 100
# [22] = 16 g ai/ha, scale 0 to 100 (0 no effect, 100 complete control)
# [23] = 31 g ai/ha, scale 0 to 100 (0 no effect, 100 complete control)
compound,measurement,setting,value
CCc1cc(-c2ccc(Cl)cc2)nn1-c1c(OC(=O)OC(C)C)cnn(C)c1=O [Compound 41],Surinam Grass plant response rating,"[1]; postemergence, 0-100 scale",100
same,"Plant response rating, Surinam Grass",[1]; [15],100
same,"Plant response rating, Surinam Grass",[1]; [16],100
same,"Plant response rating, Surinam Grass",[1]; [17],40
same,"Plant response rating, Surinam Grass",[1]; [18],55
same,"Plant response rating, Surinam Grass","[1]; Preemergence, 62 g ai/ha, 0 to 100 scale, 0 no effect, 100 complete control",100
same,Surinam Grass plant response rating,"[1]; Preemergence, scale 0 to 100",0
same,Kochia plant response rating,"[2]; postemergence, 0-100 scale",0
same,"Plant response rating, Kochia",[2]; [15],0
same,"Plant response rating, Kochia",[2]; [19],0
same,"Plant response rating, Kochia",[2]; [16],0
same,"Plant response rating, Kochia",[2]; [17],0
same,"Plant response rating, Kochia",[2]; [20],0
same,"Plant response rating, Kochia",[2]; [21],0
same,Kochia plant response rating,"[2]; Preemergence, scale 0 to 100",0
same,Corn plant response rating,"[3]; postemergence, 0-100 scale",85
same,"Plant response rating, Corn",[3]; [15],85
same,"Plant response rating, Corn",[3]; [19],95
same,"Plant response rating, Corn",[3]; [16],95
same,"Plant response rating, Corn",[3]; [17],65
same,"Plant response rating, Corn",[3]; [20],85
same,"Plant response rating, Corn",[3]; [21],95
same,Corn plant response rating,"[3]; Preemergence, scale 0 to 100",45
same,"Oat, Wild plant response rating","[4]; postemergence, 0-100 scale",100
same,"Plant response rating, Oat, Wild",[4]; [15],100
same,"Plant response rating, Oat, Wild",[4]; [19],100
same,"Plant response rating, Oat, Wild",[4]; [16],100
same,"Plant response rating, Oat, Wild",[4]; [17],85
same,"Plant response rating, Oat, Wild",[4]; [18],95
same,"Plant response rating, Oat, Wild",[4]; [21],95
same,"Oat, Wild plant response rating","[4]; Preemergence, scale 0 to 100",70
same,"Plant response rating, Galium",[5]; [22],0
same,"Plant response rating, Galium","[5]; 31 g ai/ha, 0 to 100 scale, 0 no effect, 100 complete control",50
same,"Plant response rating, Galium","[5]; 62 g ai/ha, scale 0 to 100",100
same,Galium plant response rating,"[5]; 8 g ai/ha, scale 0 to 100",0
same,Ragweed plant response rating,"[6]; postemergence, 0-100 scale",0
same,"Plant response rating, Ragweed",[6]; [15],0
same,"Plant response rating, Ragweed",[6]; [19],0
same,"Plant response rating, Ragweed",[6]; [16],0
same,"Plant response rating, Ragweed",[6]; [17],0
same,"Plant response rating, Ragweed",[6]; [18],0
same,"Plant response rating, Ragweed",[6]; [21],0
same,Ragweed plant response rating,"[6]; Preemergence, scale 0 to 100",0
same,Cocklebur plant response rating,"[7]; postemergence, 0-100 scale",0
same,"Plant response rating, Cocklebur",[7]; [15],0
same,"Plant response rating, Cocklebur",[7]; [19],0
same,"Plant response rating, Cocklebur",[7]; [16],0
same,"Plant response rating, Cocklebur",[7]; [17],0
same,"Plant response rating, Cocklebur",[7]; [20],0
same,"Plant response rating, Cocklebur",[7]; [21],0
same,Cocklebur plant response rating,"[7]; Preemergence, scale 0 to 100",0
same,Lambsquarters plant response rating,"[8]; postemergence, 0-100 scale",0
same,"Plant response rating, Lambsquarters",[8]; [15],0
same,"Plant response rating, Lambsquarters",[8]; [19],0
same,"Plant response rating, Lambsquarters",[8]; [16],0
same,"Plant response rating, Lambsquarters",[8]; [17],0
same,"Plant response rating, Lambsquarters",[8]; [20],0
same,"Plant response rating, Lambsquarters",[8]; [21],0
same,Lambsquarters plant response rating,"[8]; Preemergence, scale 0 to 100",0
same,"Foxtail, Green plant response rating","[9]; postemergence, 0-100 scale",85
same,"Plant response rating, Foxtail, Green",[9]; [15],100
same,"Plant response rating, Foxtail, Green",[9]; [19],100
same,"Plant response rating, Foxtail, Green",[9]; [16],100
same,"Plant response rating, Foxtail, Green",[9]; [17],100
same,"Plant response rating, Foxtail, Green",[9]; [20],100
same,"Plant response rating, Foxtail, Green",[9]; [21],100
same,"Foxtail, Green plant response rating","[9]; Preemergence, scale 0 to 100",100
same,"Ryegrass, Italian plant response rating","[10]; postemergence, 0-100 scale",90
same,"Plant response rating, Ryegrass, Italian",[10]; [15],98
same,"Plant response rating, Ryegrass, Italian",[10]; [19],100
same,"Plant response rating, Ryegrass, Italian",[10]; [16],100
same,"Plant response rating, Ryegrass, Italian",[10]; [17],85
same,"Plant response rating, Ryegrass, Italian",[10]; [18],100
same,"Plant response rating, Ryegrass, Italian",[10]; [21],100
same,"Ryegrass, Italian plant response rating","[10]; Preemergence, scale 0 to 100",85
same,Morningglory plant response rating,"[11]; postemergence, 0-100 scale",0
same,"Plant response rating, Morningglory",[11]; [15],0
same,"Plant response rating, Morningglory",[11]; [19],0
same,"Plant response rating, Morningglory",[11]; [16],0
same,"Plant response rating, Morningglory",[11]; [17],0
same,"Plant response rating, Morningglory",[11]; [18],0
same,"Plant response rating, Morningglory",[11]; [21],0
same,Morningglory plant response rating,"[11]; Preemergence, scale 0 to 100",0
same,"Plant response rating, Russian Thistle",[12]; [23],0
same,"Plant response rating, Russian Thistle","[12]; 62 g ai/ha, scale 0 to 100",0
same,"Nutsedge, Yellow plant response rating","[13]; postemergence, 0-100 scale",0
same,"Plant response rating, Nutsedge, Yellow",[13]; [15],0
same,"Plant response rating, Nutsedge, Yellow",[13]; [19],0
same,"Plant response rating, Nutsedge, Yellow",[13]; [16],0
same,"Plant response rating, Nutsedge, Yellow",[13]; [17],0
same,"Plant response rating, Nutsedge, Yellow",[13]; [18],0
same,"Plant response rating, Nutsedge, Yellow",[13]; [21],0
same,"Nutsedge, Yellow plant response rating","[13]; Preemergence, scale 0 to 100",0
same,"Plant response rating, Nightshade, E. B.",[14]; [22],0
same,"Plant response rating, Nightshade, E. B.",[14]; [23],0
same,"Plant response rating, Nightshade, E. B.","[14]; 62 g ai/ha, scale 0 to 100",0
same,"Nightshade, E. B. plant response rating","[14]; 8 g ai/ha, scale 0 to 100",0
